In patent US20240240226A1, “FLUOROGENIC ASSAY FOR RAPID SCREENING OF BACTERIAL BETA-LACTAMASE ACTIVITY” (The Board of Trustees of the Leland Stanford Junior …, priority 2021, published 2024):

Experiments:
[1] = system: E. coli/KPC-3; assay: CDA/H2O2 detection of live E. coli expressing KPC-3 carbapenemase; format: cell-based; conditions: CDA 10 μM, H2O2 1 mM, room temperature
Procedure: FIG. 23 illustrates the fluorescence enhancement of CDA incubated with different concentrations of E. coli expressing KPC-3 carbapenemase in PBS at room temperature; CDA, 10 μM, and H2O2, 1 mM. The signal of CDA in H2O2 was subtracted and the absolute values were plotted. Data were collected on a Tecan Safire microplate reader with excitation at 570 nm and emission at 600 nm. A.U. indicates arbitrary units.
Factoring the 100 μL assay volume, as low as 100 bacteria in one 96 well were detectable with the assay. A concentration of H2O2 at 1-2 mM efficiently oxidized the processed CDA to resorufin inside E. coli. Next, the assay was used to detect E. coli/IMP-1 and E. coli/KPC-3 (FIGS. 3e and 23). E. coli/IMP-1 was detected at […] within 2 hours, and E. coli/KPC-3 could be reliably detected at around 10^5-10^6 c.f.u./mL.
Bacteria growth and assay: E. coli (BL21 or TOP10) transformed to express TEM-1 Bla, IMP-1, and KPC3 were grown in LB medium and induced with 0.2% arabinose for 6-8 h at 30° C., 205 rpm. Colony forming units per milliliter (c.f.u./mL) were determined by measuring the UV absorbance at OD600.
For CDA incubation, 10 μM working solution was prepared freshly by diluting stock solution (1 mM in pure DMSO) in PBS (pH 7.05). A light-safe tube or foil wrap was used to prevent photobleaching.

[2] = system: E. coli/TEM-1; assay: CDA detection of live E. coli expressing TEM-1 Bla; format: cell-based
Procedure: FIG. 3 illustrates the characterization of CDA with HRP, H2O2, E. coli expressing TEM-1 Bla (E. coli/TEM-1) and IMP-1 carbapenemase (E. coli/IMP-1), and K. pneumoniae expressing KPC carbapenemase (K. pneumoniae/KPC). a) Fluorescence enhancement of CDA incubated with different concentrations of E. coli expressing TEM-1 Bla. b) Fluorescence enhancement of CDA; HRP (1 unit/mL), H2O2 (1 μM), and either viable E. coli expressing TEM-1 Bla or bacterial lysate extracted from equal c.f.u. per milliliter. c) Fluorescence enhancement of CDA incubated with different concentrations of E. coli expressing TEM-1 Bla (H2O2, 1 mM). d) Fluorescent intensity of E. coli and E. coli/TEM-1 preincubated with CDA for 20 hours upon addition of H2O2 (500 μM) for 5 min. Error bars represent ±SD, n=3. * p<0.0332; **p<0.0021, ****p<0.0001, ns: not significant. e) Fluorescence enhancement of CDA incubated with different concentrations of E. coli expressing IMP-1 carbapenemase in the presence of H2O2 (1 mM). f) Fluorescence enhancement of CDA incubated with different concentrations of K. pneumoniae expressing KPC carbapenemase (H2O2, 1 mM). […] Data were collected on a Tecan Safire microplate reader with excitation at 570 nm and emission at 600 nm. […]
It was studied if CDA could report β-lactamase activity in live E. coli and Klebsiella pneumoniae (K. pneumoniae) which are commonly found in many infections. Three transformed E. coli strains expressing the most clinically prevalent β-lactamases including TEM-1 Bla (E. coli/TEM-1) and two carbapenemases were evaluated: a metallo-β-lactamase IMP-1 (E. coli/IMP-1) and a unique class A β-lactamase KPC-3 (E. coli/KPC-3) that hydrolyze carbapenem antibiotics. […]
To address the question of whether a higher concentration of H2O2 would equilibrate across membranes of viable bacteria and accelerate the oxidation of processed CDA, a serial dilution of H2O2 (100 μM, 500 μM, 1 mM, 2 mM) was incubated with CDA and different concentrations of E. coli and E. coli/TEM-1 for a longitudinal reading (FIGS. 3c, 21b, and 22). […]

[3] = molecular target: T1, TEM-1 Bla (Escherichia coli, UniProt P62593); assay: CDA fluorescence turn-on with recombinant TEM-1 Bla, esterase and H2O2; format: biochemical
T1 construct: TEV(Cys) (TEV site / Cys element as named in the plasmid); made in house; host or cells: E. coli (BL21 or TOP10)
T1 sequence (P62593 24-286 limits assumed): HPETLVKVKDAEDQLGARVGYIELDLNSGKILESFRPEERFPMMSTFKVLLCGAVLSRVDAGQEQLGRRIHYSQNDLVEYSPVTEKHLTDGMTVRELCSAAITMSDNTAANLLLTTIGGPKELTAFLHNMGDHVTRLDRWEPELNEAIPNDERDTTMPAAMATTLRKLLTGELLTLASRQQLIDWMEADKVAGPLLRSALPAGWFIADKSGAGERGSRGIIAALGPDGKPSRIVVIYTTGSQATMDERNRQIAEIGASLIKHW

[4] = system: E. coli/IMP-1; assay: CDA/H2O2 detection of live E. coli expressing IMP-1 carbapenemase; format: cell-based; conditions: H2O2 1 mM, within 2 hours
Procedure: FIG. 3 illustrates the characterization of CDA with HRP, H2O2, E. coli expressing TEM-1 Bla (E. coli/TEM-1) and IMP-1 carbapenemase (E. coli/IMP-1), and K. pneumoniae expressing KPC carbapenemase (K. pneumoniae/KPC). a) Fluorescence enhancement of CDA incubated with different concentrations of E. coli expressing TEM-1 Bla. b) Fluorescence enhancement of CDA; HRP (1 unit/mL), H2O2 (1 μM), and either viable E. coli expressing TEM-1 Bla or bacterial lysate extracted from equal c.f.u. per milliliter. c) Fluorescence enhancement of CDA incubated with different concentrations of E. coli expressing TEM-1 Bla (H2O2, 1 mM). d) Fluorescent intensity of E. coli and E. coli/TEM-1 preincubated with CDA for 20 hours upon addition of H2O2 (500 μM) for 5 min. Error bars represent ±SD, n=3. * p<0.0332; **p<0.0021, ****p<0.0001, ns: not significant. e) Fluorescence enhancement of CDA incubated with different concentrations of E. coli expressing IMP-1 carbapenemase in the presence of H2O2 (1 mM). f) Fluorescence enhancement of CDA incubated with different concentrations of K. pneumoniae expressing KPC carbapenemase (H2O2, 1 mM). All the studies were duplicated at room temperature with PBS (pH=7.05) as the buffer unless other indicated. The working concentration of CDA was 10 μM. […] Data were collected on a Tecan Safire microplate reader with excitation at 570 nm and emission at 600 nm. […]

CC(=O)Oc1ccc2c(c1)Oc1cc(OC(C)=O)ccc1N2C(=O)OCc1ccc(SCC2=C(C(=O)O)N3C(=O)[C@@H](NC(=O)Cc4ccccc4)[C@H]3SC2)cc1 [CDA, 3-(((4-(((3,7-diacetoxy-10H-phenoxazine-10-carbonyl)oxy)methyl)phenyl)thio)methyl)-8-oxo-7-(2-phenylacetamido)-5-thia-1-azabicyclo[4.2.0]oct-2-ene-2-carboxylic acid]
bacteria concentration reliably detected [1]: 10^5-10^6 c.f.u./mL | effect of adding HRP and H2O2 on fluorescence with viable bacteria ([2]; HRP 1 unit/mL, H2O2 1 μM, bacteria not lysed): contributed little to the fluorescence increase | number of bacteria detectable in one 96 well ([2]; factoring the 100 μL assay volume): 100 bacteria | bacteria concentration detectable ([2]; noninduced E. coli/TEM-1, H2O2 1 mM, within 2-3 hours): 10^6-10^7 c.f.u./mL | minimum CDA concentration required for reporting β-lactamase/esterase activity ([3]; esterase 1 μg/mL, TEM-1 Bla 100 nM, H2O2 1 mM): 100 nM | fluorescence with TEM-1 Bla and esterase without H2O2 ([3]; no H2O2, oxidation by dissolved oxygen): displayed fluorescence turn-on | bacteria concentration detected [4]: 105 c.f.u./mL
